This test deals with T1, F508delCFTR (Homo sapiens, UniProt P13569, DEL508-508).
T1 construct: expressed in transfected cells; host or cells: CFBE41o- (human lung derived epithelial cell line), doxycycline-inducible expression
Kind of test: Cell Surface Expression-Horse Radish Peroxidase (CSE-HRP) assay. In kind it is cell-based. The note with it: CFBE41o-F508delCFTR-HRP cells; for Maximum % activity (with co-corrector): with co-corrector (2 μM); for Maximum % activity (with co-corrector) / Maximum % activity (without co-corrector): normalized to on-plate positive control, highest concentration 20 μM. In short, it runs like this:
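Surface F508delCFTR-HRP was read by luminol luminescence after 18–24 h compound exposure at 33 °C, without or with 2 μM co-corrector. Doses were eight 3-fold steps from 20 μM, in doxycycline-induced (0.5 μg/mL, 72 h) CFBE41o- cells. % activity was scaled to the on-plate 2 μM positive control minus DMSO; EC50 came from a variable-slope sigmoid fit.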

Where [1] appears, read: test compound without co-corrector, 18-24 hours at 33° C., read-out: EC50 (without co-corrector).
[2] abbreviates: with co-corrector (2 μM of 3-[(2R,4R)-4-({[1-(2,2-difluoro-1,3-benzodioxol-5-yl)cyclopropyl]carbonyl}amino)-7-methoxy-3,4-dihydro-2H-chromen-2-yl]benzoic acid), read-out: EC50 (with co-corrector).

As a reminder, the EC50 is the concentration that produces a half-maximal response.

Where two headings read alike, the source gives them in different places.

T1 sequence (P13569 with tags, fused parts or gaps DEL508-508): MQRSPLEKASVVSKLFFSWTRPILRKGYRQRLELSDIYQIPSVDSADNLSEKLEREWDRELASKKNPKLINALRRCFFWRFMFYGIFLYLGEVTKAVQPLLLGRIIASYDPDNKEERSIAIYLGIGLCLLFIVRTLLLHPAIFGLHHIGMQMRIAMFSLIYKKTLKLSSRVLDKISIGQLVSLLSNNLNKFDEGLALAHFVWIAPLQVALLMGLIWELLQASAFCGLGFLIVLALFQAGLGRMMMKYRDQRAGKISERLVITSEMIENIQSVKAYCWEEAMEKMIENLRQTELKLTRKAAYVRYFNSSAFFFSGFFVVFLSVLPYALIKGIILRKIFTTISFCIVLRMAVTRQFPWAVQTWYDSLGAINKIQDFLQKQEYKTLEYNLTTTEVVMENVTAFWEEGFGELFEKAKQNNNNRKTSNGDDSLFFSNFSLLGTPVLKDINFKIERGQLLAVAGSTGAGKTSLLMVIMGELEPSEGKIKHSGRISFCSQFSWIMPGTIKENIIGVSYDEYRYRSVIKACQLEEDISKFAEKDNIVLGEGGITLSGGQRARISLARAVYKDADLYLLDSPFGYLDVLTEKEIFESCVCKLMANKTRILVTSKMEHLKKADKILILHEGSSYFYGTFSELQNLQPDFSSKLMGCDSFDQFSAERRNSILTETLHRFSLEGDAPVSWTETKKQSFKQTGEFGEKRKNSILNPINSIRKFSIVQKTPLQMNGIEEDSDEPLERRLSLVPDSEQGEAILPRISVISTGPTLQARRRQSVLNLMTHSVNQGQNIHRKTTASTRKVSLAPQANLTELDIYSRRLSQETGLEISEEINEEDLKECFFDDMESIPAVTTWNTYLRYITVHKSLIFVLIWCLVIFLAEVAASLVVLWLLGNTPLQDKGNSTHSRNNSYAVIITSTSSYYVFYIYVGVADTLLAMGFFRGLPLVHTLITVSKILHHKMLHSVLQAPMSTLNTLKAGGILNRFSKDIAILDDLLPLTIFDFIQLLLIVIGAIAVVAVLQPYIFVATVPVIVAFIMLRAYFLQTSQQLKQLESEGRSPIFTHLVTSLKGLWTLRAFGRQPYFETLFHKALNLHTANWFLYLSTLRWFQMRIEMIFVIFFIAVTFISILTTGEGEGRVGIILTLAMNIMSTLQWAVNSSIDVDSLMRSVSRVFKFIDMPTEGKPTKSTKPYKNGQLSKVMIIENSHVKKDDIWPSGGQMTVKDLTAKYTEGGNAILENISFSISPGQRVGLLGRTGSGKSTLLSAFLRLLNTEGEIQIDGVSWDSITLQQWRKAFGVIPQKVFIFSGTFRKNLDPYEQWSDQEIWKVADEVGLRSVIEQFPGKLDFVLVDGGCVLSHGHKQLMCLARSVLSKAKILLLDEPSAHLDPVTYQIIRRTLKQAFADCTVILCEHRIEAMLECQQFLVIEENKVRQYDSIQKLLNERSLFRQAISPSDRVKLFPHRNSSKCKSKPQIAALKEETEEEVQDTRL

Take `COc1ncc(C(F)(F)F)cc1CO[C@H]1[C@H](C(C)(C)C)[C@@H](C(=O)O)N(C(=O)OC(C)C)[C@H]1c1cccnc1OC(C)C` [Example 147, (2S,3R,4S,5S)-3-tert-butyl-4-{[2-methoxy-5-(trifluoromethyl)pyridin-3-yl]methoxy}-1-{[(propan-2-yl)oxy]carbonyl}-5-{2-[(propan-2-yl)oxy]pyridin-3-yl}pyrrolidine-2-carboxylic acid]: the “Maximum % activity (with co-corrector)” value is recorded as “+++ (≥350)”; the “Maximum % activity (without co-corrector)” value is “++ (≥100 and <200)”. The EC50 under setting [1] was in the range of 1000 to 10000 nM. Besides, under setting [2], the half-maximal effective concentration (EC50) is below 1000 nM.

`COc1ncc(C(F)(F)F)cc1CO[C@H]1[C@H](C(C)(C)C)[C@@H](C(=O)O)N(C(=O)[C@@H]2CCCCO2)[C@H]1c1ccccc1C1=CCN(C)CC1` [Example 192, (2S,3R,4S,5S)-3-tert-butyl-4-{[2-methoxy-5-(trifluoromethyl)pyridin-3-yl]methoxy}-5-[2-(1-methyl-1,2,3,6-tetrahydropyridin-4-yl)phenyl]-1-[(2S)-oxane-2-carbonyl]pyrrolidine-2-carboxylic acid]: the “Maximum % activity (with co-corrector)” value was “++ (≥150 and <350)”; the “Maximum % activity (without co-corrector)” value is recorded as “+ (<100)”. Also, the EC50 under setting [1] fell in the range of 1000 to 10000 nM. Further, under setting [2], the EC50 fell in the range of 1000 to 10000 nM.

For the compound `COc1ncc(N2CCCC2)cc1CO[C@H]1[C@H](C(C)(C)C)[C@@H](C(=O)O)N(C(=O)OC(C)C)[C@H]1c1ccccc1` [Example 82, (2S,3R,4S,5S)-3-tert-butyl-4-{[2-methoxy-5-(pyrrolidin-1-yl)pyridin-3-yl]methoxy}-5-phenyl-1-{[(propan-2-yl)oxy]carbonyl}pyrrolidine-2-carboxylic acid], the “Maximum % activity (with co-corrector)” value was “++ (≥150 and <350)”; the “Maximum % activity (without co-corrector)” value is reported as “+ (<100)”. Further, the EC50 under setting [1] was in the range of 1000 to 10000 nM. For the same compound, the EC50 under setting [2] is 1000 to 10000 nM.

As for `COc1nc(C(C)(C)C)ccc1CO[C@H]1[C@H](C(C)(C)C)[C@@H](C(=O)O)N(C(=O)[C@@H]2CCCCO2)[C@H]1c1cccnc1OC(C)C` [Example 290, (2S,3R,4S,5S)-3-tert-butyl-4-[(6-tert-butyl-2-methoxypyridin-3-yl)methoxy]-1-[(2S)-oxane-2-carbonyl]-5-{2-[(propan-2-yl)oxy]pyridin-3-yl}pyrrolidine-2-carboxylic acid], the “Maximum % activity (with co-corrector)” value is “+++ (≥350)”; the “Maximum % activity (without co-corrector)” value is “++ (≥100 and <200)”. Also, the concentration giving a half-maximal response (EC50) under setting [1] was below 1000 nM. The EC50 under setting [2] is below 1000 nM.

For `COc1ccc(C(C)(C)C)cc1CO[C@H]1[C@H](C(C)(C)C)[C@@H](C(=O)O)N(C(=O)[C@@H]2CCCCO2)[C@H]1c1cccnc1OC(C)C` [Example 285, (2S,3R,4S,5S)-3-tert-butyl-4-[(5-tert-butyl-2-methoxyphenyl)methoxy]-1-[(2S)-oxane-2-carbonyl]-5-{2-[(propan-2-yl)oxy]pyridin-3-yl}pyrrolidine-2-carboxylic acid], the “Maximum % activity (with co-corrector)” value is listed as “+++ (≥350)” and the “Maximum % activity (without co-corrector)” value is reported as “+++ (≥200)”. Moreover, under setting [1], the EC50 was below 1000 nM. Moreover, the EC50 under setting [2] is below 1000 nM.

Consider `COc1ncc(C(F)(F)F)cc1CO[C@H]1[C@H](C(C)(C)C)[C@@H](C(=O)O)N(C(=O)[C@@H]2CCCCO2)[C@H]1c1cccc2c1CCCC2` [Example 219, (2S,3R,4S,5S)-3-tert-butyl-4-{[2-methoxy-5-(trifluoromethyl)pyridin-3-yl]methoxy}-1-[(2S)-oxane-2-carbonyl]-5-(5,6,7,8-tetrahydronaphthalen-1-yl)pyrrolidine-2-carboxylic acid], for which the “Maximum % activity (with co-corrector)” value is on record as “+++ (≥350)” and the “Maximum % activity (without co-corrector)” value was “+++ (≥200)”. Also, under setting [1], the EC50 was below 1000 nM. Under setting [2], the concentration for a half-maximal effect (EC50) is below 1000 nM.

Regarding `COc1ncc(C(F)(F)F)cc1CO[C@H]1[C@H](C(C)(C)C)[C@@H](C(=O)O)N(C(=O)[C@@H]2CCCCO2)[C@H]1c1ccccc1-c1cccc(N(C)C)c1` [Example 194, (2S,3R,4S,5S)-3-tert-butyl-5-[3′-(dimethylamino) [1,1′-biphenyl]-2-yl]-4-{[2-methoxy-5-(trifluoromethyl)pyridin-3-yl]methoxy}-1-[(2S)-oxane-2-carbonyl]pyrrolidine-2-carboxylic acid], the “Maximum % activity (with co-corrector)” value is “+++ (≥350)” and the “Maximum % activity (without co-corrector)” value was “+++ (≥200)”. Also, under setting [1], the EC50 was in the range of 1000 to 10000 nM. In addition, under setting [2], the EC50 was below 1000 nM.

As to `COc1ncc(C2CCC2)cc1CO[C@H]1[C@H](C(C)(C)C)[C@@H](C(=O)O)N(C(=O)[C@@H]2CCCO2)[C@H]1c1ccccc1C(C)C` [Example 130, (2S,3R,4S,5S)-3-tert-butyl-4-[(5-cyclobutyl-2-methoxypyridin-3-yl)methoxy]-1-[(2S)-oxolane-2-carbonyl]-5-[2-(propan-2-yl)phenyl]pyrrolidine-2-carboxylic acid], the “Maximum % activity (with co-corrector)” value is “+++ (≥350)”; the “Maximum % activity (without co-corrector)” value was “++ (≥100 and <200)”. In addition, the EC50 under setting [1] was below 1000 nM. Under setting [2], the EC50 was below 1000 nM.

As for `CC(C)(C)[C@@H]1C(OCc2cc(Cl)ccc2Cl)[C@@H](c2ccccc2)N(C(=O)CC2CCCC2)[C@H]1C(=O)O` (mixture of isomers) [Example 1, rac-(2R,3S,5R)-3-tert-butyl-1-(cyclopentylacetyl)-4-[(2,5-dichlorophenyl)methoxy]-5-phenylpyrrolidine-2-carboxylic acid], the “Maximum % activity (with co-corrector)” value is “+++ (≥350)” and the “Maximum % activity (without co-corrector)” value is recorded as “+ (<100)”. Besides, the EC50 under setting [1] was 1000 to 10000 nM. Also, the EC50 under setting [2] fell in the range of 1000 to 10000 nM.

In the case of `COc1ccc(C(C)(C)C)nc1CO[C@H]1[C@H](C(C)(C)C)[C@@H](C(=O)O)N(C(=O)[C@@H]2CCCCO2)[C@H]1c1ccccc1C` [Example 226, (2S,3R,4S,5S)-3-tert-butyl-4-[(6-tert-butyl-3-methoxypyridin-2-yl)methoxy]-5-(2-methylphenyl)-1-[(2S)-oxane-2-carbonyl]pyrrolidine-2-carboxylic acid], the “Maximum % activity (with co-corrector)” value is reported as “+++ (≥350)” and the “Maximum % activity (without co-corrector)” value is “+++ (≥200)”. Besides, under setting [1], the EC50 was below 1000 nM. Under setting [2], the EC50 was below 1000 nM.

Take `COc1ncc(N2CCC(F)(F)C2)cc1CO[C@H]1[C@H](C(C)(C)C)[C@@H](C(=O)O)N(C(=O)OC(C)C)[C@H]1c1ccccc1` [Example 85, (2S,3R,4S,5S)-3-tert-butyl-4-{[5-(3,3-difluoropyrrolidin-1-yl)-2-methoxypyridin-3-yl]methoxy}-5-phenyl-1-{[(propan-2-yl)oxy]carbonyl}pyrrolidine-2-carboxylic acid]: the “Maximum % activity (with co-corrector)” value was “++ (≥150 and <350)”; the “Maximum % activity (without co-corrector)” value was “+ (<100)”. The EC50 under setting [1] was 1000 to 10000 nM. In addition, the EC50 under setting [2] fell in the range of 1000 to 10000 nM.

Take `COc1nc2ccccc2cc1CO[C@H]1[C@H](C(C)(C)C)[C@@H](C(=O)O)N(C(=O)[C@@H]2CCCCO2)[C@H]1c1ccccc1C(C)C` [Example 132, (2S,3R,4S,5S)-3-tert-butyl-4-[(2-methoxyquinolin-3-yl)methoxy]-1-[(2S)-oxane-2-carbonyl]-5-[2-(propan-2-yl)phenyl]pyrrolidine-2-carboxylic acid]: the “Maximum % activity (with co-corrector)” value is “+++ (≥350)”; the “Maximum % activity (without co-corrector)” value is “++ (≥100 and <200)”. Also, under setting [1], the EC50 lay within 1000 to 10000 nM. Besides, under setting [2], the EC50 is below 1000 nM.

The record behind these values is patent US10399940B2, “Substituted pyrrolidines and methods of use” (AbbVie S.à.r.l., priority 2016, dated 2019).
